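Method: 48-hour compound exposure of cells in 96-well plates, five concentrations, linear interpolation of endpoints. TGI: total growth inhibition.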

Our source for the TGI values is PubChem BioAssay (NCI).

One assay concerns OVCAR-3 ovarian. The assay is described as follows: growth of human tumour cells (NCI), 48 h.
With `O=C(c1ccc(Cl)cc1Cl)N(C(=O)N1CCC(c2ccccc2)CC1)c1ccccc1`, the TGI was > 100 µM.

Consider `CCCCCCn1c(SCC)c2ccccc2c1-c1nc(F)nc(F)n1`, for which the TGI is > 100 µM.

As to `CN(C(=O)C12C3C4C1C1C2C3C41I)C(C)(C)C` (centres undefined), the TGI was > 100 µM.

`Cn1c(O)c(C(=O)Nc2cccs2)c(=O)[nH]c1=S` displayed a TGI of 49.8 µM.

On to `CC(=O)/C(=C\c1ccco1)C(=O)Nc1ccccc1`, for which the TGI was > 100 µM.

As to `NCC1(N2CCOCC2)C2CCCC21CO` (centres undefined), the TGI was > 100 µM.

Consider `CC#COP(=O)(OCC)OCC`, for which the TGI is > 100 µM.

`O=C(CC1Sc2ccccc2NC1=O)Nc1cc(Cl)ccc1Cl` (centres undefined): the TGI was > 100 µM.

Regarding `COc1cc(/C=C/C(=O)c2sc(-n3nc(-c4ccccc4)cc3-c3ccccc3)nc2C)ccc1O`, the TGI was > 100 µM.

For the compound `O=C(CCn1[nH]c(=O)c(Cl)c(Cl)c1=O)NOCCCc1ccccc1`, the TGI is > 100 µM.

On to `CC(C)=CCCC1(C)C=Cc2c(c(C)cc3c2[nH]c2cc(O)ccc23)O1` (centres undefined), for which the TGI was > 25 µM.

As to `COc1cc(NC(C)=O)c2[nH]c3c(C)cc(NC(C)=O)c(C)c3c2c1`, the TGI was > 100 µM.

With `COc1cc(/C=C\c2ccccn2)cc(OC)c1OC`, the TGI was > 100 µM.

Consider `O=P(O)(OCC(O)O)OCC(O)O`, for which the TGI was > 100 µM.

For the compound `CCOC(=O)CSc1ccnc(=O)[nH]1`, the TGI was > 100 µM.

In turn, `c1ccc(Nc2nnc(CSc3nc(-c4ccccc4)c(-c4ccccc4)[nH]3)s2)cc1` gave a TGI of 26.7 µM.

The next assay has as its system RPMI-8226 leukemia. The experiment in a line: growth of human tumour cells (NCI), 48 h.
In the case of `O=C1C/C(=C/c2ccc(/C=C3/CC(=O)N(c4cccc(Br)c4)C3=O)cc2)C(=O)N1c1cccc(Br)c1`, the TGI is > 100 µM.

Turning to `CCOC(C[C@H](O)[C@H]1COC(=S)S1)OCC`, the TGI is > 100 µM.

In the case of `O=C(c1ccc(Cl)cc1Cl)N(C(=O)N1CCC(c2ccccc2)CC1)c1ccccc1`, the TGI was > 100 µM.

Consider `CCCCCCn1c(SCC)c2ccccc2c1-c1nc(F)nc(F)n1`, for which the TGI was > 100 µM.

As for `CN(C(=O)C12C3C4C1C1C2C3C41I)C(C)(C)C` (centres undefined), the TGI was > 100 µM.

`Cn1c(O)c(C(=O)Nc2cccs2)c(=O)[nH]c1=S` showed a TGI of 49.1 µM.

Take `CC(=O)/C(=C\c1ccco1)C(=O)Nc1ccccc1`: the TGI was > 100 µM.

For `NCC1(N2CCOCC2)C2CCCC21CO` (centres undefined), the TGI was > 100 µM.

On to `CC#COP(=O)(OCC)OCC`, for which the TGI was > 100 µM.

With `C=CCONC(=O)c1ccc(Cl)cc1`, the TGI was > 100 µM.

On to `O=C(CC1Sc2ccccc2NC1=O)Nc1cc(Cl)ccc1Cl` (centres undefined), for which the TGI is > 100 µM.

For `COc1cc(/C=C/C(=O)c2sc(-n3nc(-c4ccccc4)cc3-c3ccccc3)nc2C)ccc1O`, the TGI was > 100 µM.

For `O=C(CCn1[nH]c(=O)c(Cl)c(Cl)c1=O)NOCCCc1ccccc1`, the TGI is > 100 µM.

Consider `CC(C)=CCCC1(C)C=Cc2c(c(C)cc3c2[nH]c2cc(O)ccc23)O1` (centres undefined), for which the TGI is > 25 µM.

Regarding `COc1cc(NC(C)=O)c2[nH]c3c(C)cc(NC(C)=O)c(C)c3c2c1`, the TGI is > 100 µM.

In the case of `COc1cc(/C=C\c2ccccn2)cc(OC)c1OC`, the TGI was > 100 µM.

As for `O=P(O)(OCC(O)O)OCC(O)O`, the TGI was > 100 µM.

With `CCOC(=O)CSc1ccnc(=O)[nH]1`, the TGI is > 100 µM.

Compound `c1ccc(Nc2nnc(CSc3nc(-c4ccccc4)c(-c4ccccc4)[nH]3)s2)cc1` had a TGI of 50.4 µM.

For a further assay, the system named is CAKI-1 renal. The experiment in a line: growth of human tumour cells (NCI), 48 h.
For `O=C1C/C(=C/c2ccc(/C=C3/CC(=O)N(c4cccc(Br)c4)C3=O)cc2)C(=O)N1c1cccc(Br)c1`, the TGI was > 100 µM.

As for `O=C(c1ccc(Cl)cc1Cl)N(C(=O)N1CCC(c2ccccc2)CC1)c1ccccc1`, the TGI was > 100 µM.

Take `CCCCCCn1c(SCC)c2ccccc2c1-c1nc(F)nc(F)n1`: the TGI was > 100 µM.

On to `CN(C(=O)C12C3C4C1C1C2C3C41I)C(C)(C)C` (centres undefined), for which the TGI was > 100 µM.

In the case of `Cn1c(O)c(C(=O)Nc2cccs2)c(=O)[nH]c1=S`, the TGI worked out at 47.8 µM.

Regarding `CC(=O)/C(=C\c1ccco1)C(=O)Nc1ccccc1`, the TGI is > 100 µM.

In the case of `NCC1(N2CCOCC2)C2CCCC21CO` (centres undefined), the TGI is > 100 µM.

On to `CC#COP(=O)(OCC)OCC`, for which the TGI is > 100 µM.

Turning to `C=CCONC(=O)c1ccc(Cl)cc1`, the TGI is > 100 µM.

As for `O=C(CC1Sc2ccccc2NC1=O)Nc1cc(Cl)ccc1Cl` (centres undefined), the TGI was > 100 µM.

Take `COc1cc(/C=C/C(=O)c2sc(-n3nc(-c4ccccc4)cc3-c3ccccc3)nc2C)ccc1O`: the TGI was > 100 µM.

On to `O=C(CCn1[nH]c(=O)c(Cl)c(Cl)c1=O)NOCCCc1ccccc1`, for which the TGI is > 100 µM.

On to `COc1cc(NC(C)=O)c2[nH]c3c(C)cc(NC(C)=O)c(C)c3c2c1`, for which the TGI was > 100 µM.

`COc1cc(/C=C\c2ccccn2)cc(OC)c1OC`: the TGI was > 100 µM.

Turning to `CCOC(=O)CSc1ccnc(=O)[nH]1`, the TGI is > 100 µM.

The subject of another assay is OVCAR-8 ovarian. The assay is described as follows: growth of human tumour cells (NCI), 48 h.
With `O=C1C/C(=C/c2ccc(/C=C3/CC(=O)N(c4cccc(Br)c4)C3=O)cc2)C(=O)N1c1cccc(Br)c1`, the TGI was > 100 µM.

In the case of `CCOC(C[C@H](O)[C@H]1COC(=S)S1)OCC`, the TGI is > 100 µM.

As to `O=C(c1ccc(Cl)cc1Cl)N(C(=O)N1CCC(c2ccccc2)CC1)c1ccccc1`, the TGI is > 100 µM.

Consider `CCCCCCn1c(SCC)c2ccccc2c1-c1nc(F)nc(F)n1`, for which the TGI was > 100 µM.

In the case of `CN(C(=O)C12C3C4C1C1C2C3C41I)C(C)(C)C` (centres undefined), the TGI is > 100 µM.

On to `Cn1c(O)c(C(=O)Nc2cccs2)c(=O)[nH]c1=S`, for which the TGI was 66.2 µM.

As for `CC(=O)/C(=C\c1ccco1)C(=O)Nc1ccccc1`, the TGI was > 100 µM.

With `NCC1(N2CCOCC2)C2CCCC21CO` (centres undefined), the TGI was > 100 µM.

Regarding `CC#COP(=O)(OCC)OCC`, the TGI was > 100 µM.

For the compound `C=CCONC(=O)c1ccc(Cl)cc1`, the TGI is > 100 µM.

Turning to `O=C(CC1Sc2ccccc2NC1=O)Nc1cc(Cl)ccc1Cl` (centres undefined), the TGI is > 100 µM.

`COc1cc(/C=C/C(=O)c2sc(-n3nc(-c4ccccc4)cc3-c3ccccc3)nc2C)ccc1O`: the TGI is > 100 µM.

Take `O=C(CCn1[nH]c(=O)c(Cl)c(Cl)c1=O)NOCCCc1ccccc1`: the TGI was > 100 µM.

As for `CC(C)=CCCC1(C)C=Cc2c(c(C)cc3c2[nH]c2cc(O)ccc23)O1` (centres undefined), the TGI is > 25 µM.

Consider `COc1cc(NC(C)=O)c2[nH]c3c(C)cc(NC(C)=O)c(C)c3c2c1`, for which the TGI was > 100 µM.

Turning to `COc1cc(/C=C\c2ccccn2)cc(OC)c1OC`, the TGI was > 100 µM.

Take `O=P(O)(OCC(O)O)OCC(O)O`: the TGI is > 100 µM.

Consider `CCOC(=O)CSc1ccnc(=O)[nH]1`, for which the TGI was > 100 µM.

For the compound `c1ccc(Nc2nnc(CSc3nc(-c4ccccc4)c(-c4ccccc4)[nH]3)s2)cc1`, the TGI amounted to 53.8 µM.
